Data reported in ChEMBL document CHEMBL5647694, “Novel orally bioavailable EZH1/2 dual inhibitors with greater antitumor efficacy than an EZH2 selective inhibitor” (Cancer Sci, 2017).

Assays:
[1] = molecular target: Casein kinase I isoform alpha (Homo sapiens) (UniProt P48729); experiment: Inhibition of N-terminal GST-fused full length human CK1alpha (1 to 337 residues) expressed in baculovirus expression system using CKtide as substrate at 1 uM in presence of ATP by Mobility shift assay
[2] = molecular target: Ribosomal protein S6 kinase beta-2 (Homo sapiens) (UniProt Q9UBS0); experiment: Inhibition of N-terminal GST-fused full length human p70S6Kbeta (1 to 482 residues) expressed in baculovirus expression system using S6K2 peptide as substrate at 1 uM in presence of ATP by Mobility shift assay
[3] = molecular target: Serine/threonine-protein kinase WNK3 (Homo sapiens) (UniProt Q9BYP7); experiment: Inhibition of N-terminal GST-fused human WNK3 catalytic domain (1 to 434 residues) expressed in baculovirus expression system using SPAKtide as substrate at 1 uM in presence of ATP by Mobility shift assay
Chain of Serine/threonine-protein kinase WNK3 (Homo sapiens) (Q9BYP7 whole entry, the tested form may be a part): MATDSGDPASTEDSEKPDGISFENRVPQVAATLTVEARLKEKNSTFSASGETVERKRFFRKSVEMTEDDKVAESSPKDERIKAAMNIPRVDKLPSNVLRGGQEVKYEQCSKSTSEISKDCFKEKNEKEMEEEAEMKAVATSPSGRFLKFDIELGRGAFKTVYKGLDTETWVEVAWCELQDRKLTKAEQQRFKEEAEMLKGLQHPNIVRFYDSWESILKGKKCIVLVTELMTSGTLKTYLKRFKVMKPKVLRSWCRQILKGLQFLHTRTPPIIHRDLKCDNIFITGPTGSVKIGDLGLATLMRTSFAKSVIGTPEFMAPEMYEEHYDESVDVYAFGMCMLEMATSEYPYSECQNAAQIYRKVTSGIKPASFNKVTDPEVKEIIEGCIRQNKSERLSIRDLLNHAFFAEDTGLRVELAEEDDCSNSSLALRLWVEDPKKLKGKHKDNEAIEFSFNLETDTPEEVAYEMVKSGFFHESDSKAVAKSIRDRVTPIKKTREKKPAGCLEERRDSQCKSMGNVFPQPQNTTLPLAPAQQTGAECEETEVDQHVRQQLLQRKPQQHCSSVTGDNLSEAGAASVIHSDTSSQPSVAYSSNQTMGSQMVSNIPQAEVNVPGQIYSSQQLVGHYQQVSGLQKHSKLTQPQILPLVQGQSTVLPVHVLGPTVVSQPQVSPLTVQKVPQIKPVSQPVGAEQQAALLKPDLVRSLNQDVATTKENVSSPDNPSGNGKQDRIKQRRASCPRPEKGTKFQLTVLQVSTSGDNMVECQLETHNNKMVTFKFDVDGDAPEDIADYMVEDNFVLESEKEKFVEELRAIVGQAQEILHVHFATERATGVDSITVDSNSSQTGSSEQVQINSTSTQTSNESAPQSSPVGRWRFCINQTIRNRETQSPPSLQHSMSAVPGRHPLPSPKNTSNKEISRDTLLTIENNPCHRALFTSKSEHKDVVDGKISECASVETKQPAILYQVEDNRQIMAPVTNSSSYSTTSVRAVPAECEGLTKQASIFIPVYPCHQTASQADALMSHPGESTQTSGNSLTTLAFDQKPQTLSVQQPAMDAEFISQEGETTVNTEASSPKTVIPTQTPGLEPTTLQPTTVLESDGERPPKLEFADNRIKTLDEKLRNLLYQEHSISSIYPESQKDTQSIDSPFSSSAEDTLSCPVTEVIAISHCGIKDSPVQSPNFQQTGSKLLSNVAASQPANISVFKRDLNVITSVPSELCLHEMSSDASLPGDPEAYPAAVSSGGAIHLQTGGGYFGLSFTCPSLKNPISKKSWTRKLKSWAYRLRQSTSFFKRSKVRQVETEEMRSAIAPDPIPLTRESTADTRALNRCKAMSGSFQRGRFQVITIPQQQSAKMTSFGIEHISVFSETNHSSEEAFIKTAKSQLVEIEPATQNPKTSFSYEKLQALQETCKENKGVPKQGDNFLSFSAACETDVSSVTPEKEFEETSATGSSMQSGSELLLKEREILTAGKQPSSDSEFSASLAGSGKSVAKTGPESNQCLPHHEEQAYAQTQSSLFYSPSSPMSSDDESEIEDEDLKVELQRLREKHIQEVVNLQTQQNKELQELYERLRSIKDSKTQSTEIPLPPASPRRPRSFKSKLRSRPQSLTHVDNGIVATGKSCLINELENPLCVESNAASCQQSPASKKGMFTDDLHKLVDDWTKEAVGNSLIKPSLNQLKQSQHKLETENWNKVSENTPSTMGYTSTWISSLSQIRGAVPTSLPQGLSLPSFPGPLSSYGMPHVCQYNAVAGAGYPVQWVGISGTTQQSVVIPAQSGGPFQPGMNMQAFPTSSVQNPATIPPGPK

[4] = molecular target: Vascular endothelial growth factor receptor 2 (Homo sapiens) (UniProt P35968); experiment: Inhibition of N-terminal GST-tagged human KDR cytoplasmic domain (790 to 1356 residues) expressed in baculovirus-infected Sf21 cells using CSKtide as substrate at 1 uM in presence of ATP by Mobility shift assay
[5] = molecular target: Vascular endothelial growth factor receptor 1 (Homo sapiens) (UniProt P17948); experiment: Inhibition of N-terminal GST-fused human FLT1 cytoplasmic domain (781 to 1338 residues) expressed in baculovirus-infected Sf21 cells using CSKtide as substrate at 1 uM in presence of ATP by Mobility shift assay
[6] = molecular target: Casein kinase II alpha/beta (Homo sapiens) (UniProt P67870+P68400); experiment: Inhibition of N-terminal GST-fused full length human CK2alpha1 (1 to 391 residues)/His-tagged human CK2beta (1 to 215 residues) expressed in baculovirus expression system using CK2tide as substrate at 1 uM in presence of ATP by Mobility shift assay
[7] = molecular target: Platelet-derived growth factor receptor alpha (Homo sapiens) (UniProt P16234); experiment: Inhibition of N-terminal GST-tagged human PDGFR-alpha cytoplasmic domain (550 to 1089 residues) expressed in baculovirus-infected Sf21 cells using CSKtide as substrate at 1 uM in presence of ATP by Mobility shift assay
[8] = Inhibition of N-terminal GST-fused full length human MGC42105 (1 to 436 residues) expressed in baculovirus expression system using CHKtide as substrate at 1 uM in presence of ATP by Mobility shift assay; settings: condition cancer
[9] = molecular target: Mitogen-activated protein kinase 12 (Homo sapiens) (UniProt P53778); experiment: Inhibition of N-terminal GST-fused full length human p38gamma (1 to 367 residues) expressed in Escherichia coli expression system using Modified Erktide as substrate at 1 uM in presence of ATP by Mobility shift assay
Chain of Mitogen-activated protein kinase 12 (Homo sapiens) (P53778 whole entry, the tested form may be a part): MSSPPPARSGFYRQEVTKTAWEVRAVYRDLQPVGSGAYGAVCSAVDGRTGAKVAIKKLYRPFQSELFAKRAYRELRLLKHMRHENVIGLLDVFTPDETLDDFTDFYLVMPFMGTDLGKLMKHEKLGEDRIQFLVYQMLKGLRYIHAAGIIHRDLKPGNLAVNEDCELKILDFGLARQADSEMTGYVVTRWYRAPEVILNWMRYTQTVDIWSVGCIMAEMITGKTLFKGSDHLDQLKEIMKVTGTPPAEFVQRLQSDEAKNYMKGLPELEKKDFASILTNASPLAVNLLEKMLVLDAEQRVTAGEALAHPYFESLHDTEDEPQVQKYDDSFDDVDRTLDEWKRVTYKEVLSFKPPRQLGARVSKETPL

[10] = molecular target: Serine/threonine-protein kinase TBK1 (Homo sapiens) (UniProt Q9UHD2); experiment: Inhibition of N-terminal GST-fused full length human TBK1 (1 to 729 residues) expressed in baculovirus expression system using CKtide as substrate at 1 uM in presence of ATP by Mobility shift assay
[11] = molecular target: Ephrin type-A receptor 6 (Homo sapiens) (UniProt Q9UF33); experiment: Inhibition of N-terminal GST-fused human EPHA6 cytoplasmic domain (683 to 1130 residues) expressed in baculovirus-infected Sf21 cells using Blk/Lyntide as substrate at 1 uM in presence of ATP by Mobility shift assay
[12] = molecular target: Fibroblast growth factor receptor 2 (Homo sapiens) (UniProt P21802); experiment: Inhibition of N-terminal GST-fused human FGFR2 cytoplasmic domain (399 to 821 residues) expressed in baculovirus-infected Sf21 cells using CSKtide as substrate at 1 uM in presence of ATP by Mobility shift assay
[13] = molecular target: cGMP-dependent protein kinase 1 (Homo sapiens) (UniProt Q13976); experiment: Inhibition of N-terminal GST-fused human full length […] (1 to 686 residues) expressed in baculovirus expression system using Kemptide as substrate at 1 uM in presence of ATP by Mobility shift assay
Chain of cGMP-dependent protein kinase 1 (Homo sapiens) (Q13976 whole entry, the tested form may be a part): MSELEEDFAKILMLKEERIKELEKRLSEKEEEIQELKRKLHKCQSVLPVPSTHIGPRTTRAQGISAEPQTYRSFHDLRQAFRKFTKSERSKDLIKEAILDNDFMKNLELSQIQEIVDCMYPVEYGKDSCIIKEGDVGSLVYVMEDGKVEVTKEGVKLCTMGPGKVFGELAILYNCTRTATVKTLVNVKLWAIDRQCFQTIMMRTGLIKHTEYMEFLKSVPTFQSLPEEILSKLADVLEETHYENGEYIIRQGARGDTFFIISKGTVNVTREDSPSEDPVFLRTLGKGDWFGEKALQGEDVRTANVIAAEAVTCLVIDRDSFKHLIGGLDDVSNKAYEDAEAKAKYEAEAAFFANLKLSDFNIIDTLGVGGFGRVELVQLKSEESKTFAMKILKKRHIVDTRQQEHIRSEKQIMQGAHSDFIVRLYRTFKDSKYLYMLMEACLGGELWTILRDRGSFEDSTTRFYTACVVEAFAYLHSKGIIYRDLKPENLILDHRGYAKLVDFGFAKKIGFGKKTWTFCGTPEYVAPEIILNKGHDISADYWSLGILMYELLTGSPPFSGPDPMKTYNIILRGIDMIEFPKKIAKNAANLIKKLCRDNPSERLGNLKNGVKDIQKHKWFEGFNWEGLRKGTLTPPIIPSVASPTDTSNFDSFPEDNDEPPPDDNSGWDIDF

[14] = molecular target: Serine/threonine-protein kinase 4 (Homo sapiens) (UniProt Q13043); experiment: Inhibition of N-terminal GST-fused full length human MST1 (1 to 487 residues) expressed in baculovirus expression system using IRS1 as substrate at 1 uM in presence of ATP by Mobility shift assay
[15] = molecular target: Tyrosine-protein kinase JAK1 (Homo sapiens) (UniProt P23458); experiment: Inhibition of N-terminal GST-fused human JAK1 catalytic domain (850 to 1154 residues) expressed in baculovirus-infected Sf21 cells using JAK1 substrate peptide at 1 uM in presence of ATP by Mobility shift assay
[16] = molecular target: Protein kinase C zeta type (Homo sapiens) (UniProt Q05513); experiment: Inhibition of N-terminal GST-fused human full length PKC-zeta (1 to 592 residues ) expressed in baculovirus expression system using PKC peptide as substrate at 1 uM in presence of ATP by Mobility shift assay
Chain of Protein kinase C zeta type (Homo sapiens) (Q05513 whole entry, the tested form may be a part): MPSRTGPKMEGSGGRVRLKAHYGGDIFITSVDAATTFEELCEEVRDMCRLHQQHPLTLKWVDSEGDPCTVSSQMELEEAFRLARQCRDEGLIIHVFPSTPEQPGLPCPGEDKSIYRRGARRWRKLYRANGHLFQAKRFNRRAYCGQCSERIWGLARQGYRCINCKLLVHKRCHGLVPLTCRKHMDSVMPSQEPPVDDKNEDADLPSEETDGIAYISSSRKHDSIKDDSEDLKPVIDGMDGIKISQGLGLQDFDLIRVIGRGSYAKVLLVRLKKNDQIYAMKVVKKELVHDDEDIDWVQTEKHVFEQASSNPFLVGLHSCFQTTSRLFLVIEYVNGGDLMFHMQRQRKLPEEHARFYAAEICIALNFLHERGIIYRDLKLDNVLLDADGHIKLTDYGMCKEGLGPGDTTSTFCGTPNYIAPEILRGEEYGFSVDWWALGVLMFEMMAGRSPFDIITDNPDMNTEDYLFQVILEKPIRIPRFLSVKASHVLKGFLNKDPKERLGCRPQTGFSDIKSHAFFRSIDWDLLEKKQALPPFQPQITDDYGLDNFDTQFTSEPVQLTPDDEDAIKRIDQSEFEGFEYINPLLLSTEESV

[17] = molecular target: Hepatocyte growth factor receptor (Homo sapiens) (UniProt P08581); experiment: Inhibition of N-terminal GST-tagged human MET cytoplasmic domain (956 to 1390 residues ) expressed in baculovirus-infected Sf21 cells using Srctide as substrate at 1 uM in presence of ATP by Mobility shift assay
[18] = molecular target: Ribosomal protein S6 kinase alpha-3 (Homo sapiens) (UniProt P51812); experiment: Inhibition of N-terminal GST-fused human full length RSK2 (1 to 740 residues) expressed in baculovirus expression system using S6K peptide(N-FL) as substrate at 1 uM in presence of ATP by Mobility shift assay
Chain of Ribosomal protein S6 kinase alpha-3 (Homo sapiens) (P51812 whole entry, the tested form may be a part): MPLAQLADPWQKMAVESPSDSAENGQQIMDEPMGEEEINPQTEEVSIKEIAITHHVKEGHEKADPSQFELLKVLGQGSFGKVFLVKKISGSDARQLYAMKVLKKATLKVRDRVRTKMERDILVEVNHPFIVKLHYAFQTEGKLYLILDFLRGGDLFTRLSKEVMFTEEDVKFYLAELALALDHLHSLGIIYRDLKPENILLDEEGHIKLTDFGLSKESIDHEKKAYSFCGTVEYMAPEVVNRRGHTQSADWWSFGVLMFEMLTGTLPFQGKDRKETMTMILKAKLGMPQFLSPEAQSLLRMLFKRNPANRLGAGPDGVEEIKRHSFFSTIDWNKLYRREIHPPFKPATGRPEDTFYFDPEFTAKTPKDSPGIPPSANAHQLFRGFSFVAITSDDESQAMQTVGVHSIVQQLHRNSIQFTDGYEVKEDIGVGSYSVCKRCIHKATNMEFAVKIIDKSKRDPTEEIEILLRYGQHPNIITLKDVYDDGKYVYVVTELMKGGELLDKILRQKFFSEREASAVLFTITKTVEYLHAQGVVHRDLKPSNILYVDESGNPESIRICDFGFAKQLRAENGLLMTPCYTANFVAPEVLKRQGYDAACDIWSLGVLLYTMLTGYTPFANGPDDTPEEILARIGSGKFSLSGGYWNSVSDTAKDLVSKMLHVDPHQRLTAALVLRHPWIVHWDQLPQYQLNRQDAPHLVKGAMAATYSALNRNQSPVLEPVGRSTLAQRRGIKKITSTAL

[19] = molecular target: Aurora kinase C (Homo sapiens) (UniProt Q9UQB9); experiment: Inhibition of N-terminal GST-fused full length human AurC (1 to 275 residues) expressed in baculovirus-infected Sf21 cells using Kemptide as substrate at 1 uM in presence of ATP by Mobility shift assay
[20] = molecular target: Tyrosine-protein kinase ITK/TSK (Homo sapiens) (UniProt Q08881); experiment: Inhibition of N-terminal GST-fused full length human ITK (2 to 620 residues) expressed in baculovirus-infected Sf21 cells using Srctide as substrate at 1 uM in presence of ATP by Mobility shift assay
Chain of Tyrosine-protein kinase ITK/TSK (Homo sapiens) (Q08881 whole entry, the tested form may be a part): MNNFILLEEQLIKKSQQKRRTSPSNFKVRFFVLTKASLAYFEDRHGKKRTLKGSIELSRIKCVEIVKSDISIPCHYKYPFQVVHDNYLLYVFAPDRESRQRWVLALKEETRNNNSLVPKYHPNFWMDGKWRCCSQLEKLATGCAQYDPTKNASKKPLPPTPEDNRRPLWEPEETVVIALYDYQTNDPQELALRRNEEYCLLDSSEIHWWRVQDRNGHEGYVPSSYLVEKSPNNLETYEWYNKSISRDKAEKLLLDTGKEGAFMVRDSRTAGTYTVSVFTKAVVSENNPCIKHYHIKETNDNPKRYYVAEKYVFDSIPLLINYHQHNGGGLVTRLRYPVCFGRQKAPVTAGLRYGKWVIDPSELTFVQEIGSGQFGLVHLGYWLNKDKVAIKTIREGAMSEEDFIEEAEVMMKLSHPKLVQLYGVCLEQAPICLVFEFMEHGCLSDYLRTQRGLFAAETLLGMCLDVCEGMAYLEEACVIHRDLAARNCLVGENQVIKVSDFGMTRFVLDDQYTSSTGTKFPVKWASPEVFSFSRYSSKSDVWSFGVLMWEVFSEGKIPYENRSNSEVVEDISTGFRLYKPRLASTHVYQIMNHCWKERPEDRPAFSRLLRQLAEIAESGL

[21] = molecular target: 3-phosphoinositide-dependent protein kinase 1 (PDPK1) (Homo sapiens) (UniProt O15530); experiment: Inhibition of N-terminal GST-fused full length human PDK1 (1 to 556 residues) expressed in baculovirus expression system using T308tide as substrate at 1 uM in presence of ATP by Mobility shift assay
[22] = molecular target: Phosphorylase b kinase gamma catalytic chain, liver/testis isoform (Homo sapiens) (UniProt P15735); experiment: Inhibition of N-terminal GST-fused full length human PHKG2 (1 to 406 residues) expressed in baculovirus expression system using GS peptide as substrate at 1 uM in presence of ATP by Mobility shift assay

Structure (SMILES) | inhibition [1] [%] | inhibition [2] [%] | inhibition [3] [%] | inhibition [4] [%] | inhibition [5] [%] | inhibition [6] [%] | inhibition [7] [%] | inhibition at 1 µM [8] [%] | inhibition [9] [%] | inhibition [10] [%] | inhibition [11] [%] | inhibition [12] [%] | inhibition [13] [%] | inhibition [14] [%] | inhibition [15] [%] | inhibition [16] [%] | inhibition [17] [%] | inhibition [18] [%] | inhibition [19] [%] | inhibition [20] [%] | also measured
Cc1cc(C)c(CNC(=O)c2cc(Br)c3c(c2C)O[C@@](C)([C@H]2CC[C@H](N(C)C)CC2)O3)c(=O)[nH]1 | 5.2 | 2.1 | -9.2 | -1.1 | -4.4 | -5.8 | -6.1 | -1.7 | -1.6 | -4.6 | -3.8 | -2.6 | -4.3 | -2.7 | -3.3 | 3.2 | -2.1 | -4 | -9.2 | -5.6 | inhibition [21]: -5.4%; inhibition [22]: 0.7%
Cc1cc(C)c(CNC(=O)c2cc(Cl)c3c(c2C)O[C@@](C)([C@H]2CC[C@H](N(C)C)CC2)O3)c(=O)[nH]1 [VALEMETOSTAT] | 5.2 | 5.2 | -3.9 | -3 | -5.2 | -4 | -4.4 | -0.3 | -3 | -2.6 | 0.1 | -4 | -2.1 | -1.9 | -3.3 | 9.3 | -5 | -0.5 | 21.9 | -5.8 | inhibition [21]: -5.9%; inhibition [22]: -2%
